Series [1] in a line: log P determination by LC-MS in the acidic range. The note with it: LC-MS in the acidic range. Format: physicochemical. An excerpt: The LC-MS determination in the acidic range is effected at pH 2.7 using 0.1% aqueous formic acid and acetonitrile (contains 0.1% formic acid) as eluents, linear gradient from 10% acetonitrile to 95% acetonitrile. Alternatively, the determination is effected in the acidic range at pH 2.3 using 0.1% aqueous phosphoric acid and acetonitrile as eluents; linear gradient from 10% acetonitrile to 95% acetonitrile.

The test system of series [2] is Myzus persicae. The series is described as follows: Myzus persicae - sachet test. Format: in vivo. The conditions noted are these: 100% = all animals killed. In short, it runs like this: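 Active ingredient dissolved with 2% N-methylpyrrolidone and 2% diacetone alcohol, diluted in water, then pipetted into nutrient medium. Plate sealed and paired with a plate carrying green peach aphids. Kill in % scored after the set time (100% = all dead, 0% = none dead).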

Series [3] deals with Myzus persicae. The series is described as follows: Myzus persicae - spray test. It is filed as in vivo. The conditions noted are these: application rate of 500 g/ha; after 6 days; sprayed Chinese cabbage leaf discs infested by all stages; 100% = all aphids killed. A digest of the protocol: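 Chinese cabbage leaf discs infested with all stages of green peach aphid sprayed with compound in acetone/DMF formulation with alkylaryl polyglycol ether emulsifier, diluted in emulsifier-containing water. Efficacy (% aphids killed) assessed after 6 days.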

The mark [4] stands for this setting: application rate of 6 ppm in nutrient medium.
Setting [5] is: application rate of 30 ppm in nutrient medium.

As to `Cc1ccn(Cn2nc(NC(=O)c3cccnc3)cc2C)n1` [Compound I-1-192], the “log P (acid)” value in series [1] came out at 1.16. Further, the “efficacy (kill in %)” value in series [2] (setting [4]) and in series [2] (setting [5]) was 100% each time. The compound further returned an efficacy in % in series [3] of 100%.

In the case of `O=C(Nc1cc(C(F)(F)F)n(Cc2ncccn2)n1)c1cccnc1` [Compound I-1-196], the “log P (acid)” value in series [1] came to 1.46. Also, the “efficacy (kill in %)” value in series [2] (setting [4]) and in series [2] (setting [5]) was 100% each time. Moreover, in series [3], the efficacy in % is reported as 90%.

In the case of `Cn1ccc(NC(=O)c2cccnc2)n1` [Compound I-1-198], the “log P (acid)” value in series [1] was 0.22. The “efficacy (kill in %)” value in series [2] (setting [4]) and in series [2] (setting [5]) was 100% each time. For the same compound, in series [3], the efficacy in % worked out at 90%.

In the case of `Cc1cc(NC(=O)c2cccnc2)nn1-c1cccc(F)c1` [Compound I-1-202], the “log P (acid)” value in series [1] turned out to be 1.85. In addition, the results for the “efficacy (kill in %)” value in series [2] (setting [4]) and in series [2] (setting [5]) were 80% and 100%, respectively. This compound also returned an efficacy in % in series [3] of 90%.

Turning to `Cc1cc(NC(=O)c2cccnc2)nn1-c1ccc(F)cc1` [Compound I-1-203], the “log P (acid)” value in series [1] is reported as 1.79. Moreover, the “efficacy (kill in %)” value in series [2] (setting [4]) was 80%; in series [2] (setting [5]) it was 100%. Also, the efficacy in % in series [3] came out at 90%.

Consider `Cc1cc(NC(=O)c2cccnc2)nn1C1CCCCC1` [Compound I-1-204], for which the “log P (acid)” value in series [1] was found to be 2.02. Moreover, the “efficacy (kill in %)” value in series [2] (setting [4]) and in series [2] (setting [5]) was 80% in each case. Also, the efficacy in % in series [3] is reported as 90%.

Consider `Cc1c(F)c(NC(=O)c2cccnc2)nn1Cc1ncccn1` [Compound I-1-211], for which, in series [1], the “log P (acid)” value was determined as 0.72. The “efficacy (kill in %)” value in series [2] (setting [4]) and in series [2] (setting [5]) was 100% throughout. The compound also displayed an efficacy in % in series [3] of 90%.

Regarding `Cc1c(Cl)c(NC(=O)c2cccnc2)nn1Cc1ncccn1` [Compound I-1-212], the “log P (acid)” value in series [1] was 0.94. Moreover, the “efficacy (kill in %)” value in series [2] (setting [4]) and in series [2] (setting [5]) was 100% throughout. In series [3], the efficacy in % was 90%.

`Cc1cc(NC(=O)c2cccnc2)nn1C(C)C#N` (centres unmarked) [Compound I-1-214]: the “log P (acid)” value in series [1] is on record as 0.92. Besides, the “efficacy (kill in %)” value in series [2] (setting [4]) and in series [2] (setting [5]) was 100% each time. This compound also yielded an efficacy in % in series [3] of 100%.

`O=C(Nc1nn(Cc2ncccn2)c2ccccc12)c1cccnc1` [Compound I-1-215]: in series [1], the “log P (acid)” value came to 1.16. For the same compound, the “efficacy (kill in %)” value in series [2] (setting [4]) and in series [2] (setting [5]) was 100% each time. The compound also yielded an efficacy in % in series [3] of 90%.

Turning to `O=C(Nc1nn(Cc2ncccn2)c2ccccc12)c1cncc(F)c1` [Compound I-1-216], the “log P (acid)” value in series [1] is 1.54. Moreover, the “efficacy (kill in %)” value in series [2] (setting [4]) and in series [2] (setting [5]) was 100% throughout. In series [3], the efficacy in % amounted to 90%.

As to `Cc1cc(NC(=O)c2cccnc2)nn1C(C)C1CC1` (centres unmarked) [Compound I-1-218], in series [1], the “log P (acid)” value was 1.63. For the same compound, the “efficacy (kill in %)” value in series [2] (setting [4]) and in series [2] (setting [5]) was 100% each time. The compound also showed an efficacy in % in series [3] of 100%.

Take `Cc1ccnn1Cn1nc(NC(=O)c2cccnc2)cc1C` [Compound I-1-220]: in series [1], the “log P (acid)” value worked out at 1.17. In addition, the “efficacy (kill in %)” value in series [2] (setting [4]) and in series [2] (setting [5]) was 100% each time. In series [3], this compound had an efficacy in % of 90%.

For `Cn1nc(NC(=O)c2cccnc2)cc1C(F)F` [Compound I-1-221], the “log P (acid)” value in series [1] stood at 1.04. Moreover, the “efficacy (kill in %)” value in series [2] (setting [4]) and in series [2] (setting [5]) was 100% throughout. The compound also showed an efficacy in % in series [3] of 90%.

The record behind these values is patent US20160106102A1, “KNOWN AND NEW HETEROCYCLIC COMPOUNDS AS PEST CONTROL AGENTS” (BAYER CROPSCIENCE AKTIENGESELLSCHAFT, priority 2013, published 2016).
